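Each compound was tested at five concentrations against cells in 96-well plates for 48 hours. Here, GI50 denotes the concentration required for 50% inhibition of growth. TGI: total growth inhibition.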
How the values were obtained:
Assay in all cases: NCI-60 cell line screen, 48 h
SK-MEL-28 melanoma = tested on: SK-MEL-28 melanoma
KM12 colon = tested on: KM12 colon
T-47D breast = tested on: T-47D breast
U251 CNS = tested on: U251 CNS
SNB-75 CNS = tested on: SNB-75 CNS
NCI-H522 lung = tested on: NCI-H522 lung
CAKI-1 renal = tested on: CAKI-1 renal
A498 renal = tested on: A498 renal
HCT-15 colon = tested on: HCT-15 colon
OVCAR-4 ovarian = tested on: OVCAR-4 ovarian

SMILES	GI50 (SK-MEL-28 melanoma) [µM]	TGI (SK-MEL-28 melanoma) [µM]	GI50 (KM12 colon) [µM]	TGI (KM12 colon) [µM]	GI50 (T-47D breast) [µM]	TGI (T-47D breast) [µM]	GI50 (U251 CNS) [µM]	TGI (U251 CNS) [µM]	GI50 (SNB-75 CNS) [µM]	TGI (SNB-75 CNS) [µM]	GI50 (NCI-H522 lung) [µM]	TGI (NCI-H522 lung) [µM]	GI50 (CAKI-1 renal) [µM]	TGI (CAKI-1 renal) [µM]	GI50 (A498 renal) [µM]	TGI (A498 renal) [µM]	GI50 (HCT-15 colon) [µM]	TGI (HCT-15 colon) [µM]	GI50 (OVCAR-4 ovarian) [µM]	TGI (OVCAR-4 ovarian) [µM]
C/C(=N\NC(=O)c1ccncc1)c1ccccc1O	20.9	> 100	2.95	> 100	2.24	> 100	3.31	> 100	> 100	> 100	2.82	> 100	0.805	21.4	29	> 100	0.828	> 100	1.94	> 100
Cc1cccc(Cc2cnc(NC(=O)CCCOc3ccc(Cl)cc3)s2)c1	37.2	> 100	4.53	> 100	5.82	> 100	4.88	> 100	2.66	> 100	51.1	> 100	3.68	> 100	1.36	6.25	3.56	> 100	3.71	> 100
COC(=O)C(NC(=O)c1ccccc1)c1ccc(OC)c(I)c1 (stereo not given)	76.4	> 100	> 100	> 100	36.6	> 100	65.6	> 100	56.7	> 100	43.6	> 100	77.6	> 100	> 100	> 100	35.5	> 100	94.2	> 100
CC(=O)OC1CCC2(C)C(=CCC3C4CC(CN5CC5)C(=O)C4(C)CCC32)C1 (stereo not given)	13.5	27.3	3.11	11	0.914	2.7	13.6	27.6	10.8	22.7	1.52	3.26	2.21	6.02	11.4	24.9	2.27	5.62	2.8	9.55
Cn1c(=O)c(-c2c(Cl)cccc2Cl)cc2cnc(Nc3ccc(N4CCOCC4)cc3)nc21	0.675	> 100	1.38	5.09	0.598	9.77	0.17	6.13	< 0.01	0.0916	0.0202	0.42	< 0.01	0.0806	< 0.0433	0.14	0.0944	> 100	0.404	> 100
O=C(COC(=O)[C@H](C[Se][Se]C[C@H](NC(=O)c1ccc(Br)cc1F)C(=O)OCC(=O)c1ccc(F)cc1)NC(=O)c1ccc(Br)cc1F)c1ccc(F)cc1	0.631	1.63	0.301	0.793	1.41	4.08	0.696	1.92	0.354	0.964	2.2	4.38	0.716	2.66	0.306	1.04	1.34	4.03	0.689	1.54
O=C1C(=O)c2c(ccc3ccccc23)-c2ccccc21	1.73	3.67	1.6	2.99	1.75	3.96	1.67	3.56	1.83	4.03	1.32	3.13	2.7	> 100	10.4	26	1.02	6.43	1.21	2.5
CC(C)(CCc1nc2ccccc2[nH]1)C(=O)O		> 100		> 100		> 100		> 100		> 100		> 100		> 100		> 100		> 100		> 100
CCc1c[nH]c2ncnc(N3CC[C@](N)(CNC(=O)c4ccc(F)cc4F)C3)c12	7.46	> 100	1.25	> 100	0.203	11.1	0.76	> 100	0.0768	7.97	30.1	> 100	8.62	> 63.6	0.245	1.73	15.5	> 100	53.1	> 100
